Reference: patent US20220370416A1, “COMPOUNDS AND METHODS FOR TARGETED DEGRADATION OF KRAS” (Arvinas Operations, Inc., priority 2020, published 2022)

Columns and labels:
KRAS^G12C = KRAS^G12C (Homo sapiens, UniProt P01116, G12C); experiment: KRAS^G12C degradation by immunoblot in MIA PaCa-2 cells; format: cell-based; set-up: MRTX849-VHL bifunctional compounds engage and degrade endogenous KRAS^G12C in NCI-H2030 cells; endogenous in cells; host or cells: NCI-H2030, NCI-H358, MIA PaCa-2, SW1573, NCI-H23; conditions: for KRAS, two-way ANOVA significance vs DMSO: FIG. 10A
Description: NCI-H2030 (CRL-5914), MIA PaCa-2 (CRL-1420), NCI-H23 (CRL-5800), NCI-H358 (CRL-5807), and HCT-116 (CCL-247) cells were obtained from ATCC, expanded immediately, and frozen down. Vials were thawed and used within 20 passages. SW1573 cells were a gift from Arvinas and were handled in the same manner. NCI-H2030, NCI-H23, and NCI-H358 were cultured in RPMI (ATCC30-2001) supplemented with 10% FBS (Biological Industries; cat. no. S1480) and 1% Penicillin-Streptomycin (ThermoFisher; cat. no. 15140122). HCT-116 cells were maintained in high glucose DMEM (ThermoFisher; cat. no. 11965084) supplemented as above. MIA PaCa-2 cells were cultured in high glucose DMEM supplemented with 10% FBS, 2.5% horse serum (ThermoFisher; cat. no. 26050-088; lot 2109875), and 1% Penicillin-Streptomycin. SW1573 cells were maintained in DMEM/F12 Nutrient Mix with GlutaMAX supplement (ThermoFisher; cat. no. 10565018) with 10% FBS and 1% Penicillin-Streptomycin added. DPBS (ThermoFisher; cat. no. 14190250) was used to wash cells and 0.25% Trypsin-EDTA (ThermoFisher; cat. no. […]) was used to detach cells for passaging. […] The VHL ligand was generously provided by Arvinas.
Between 2.5×10^5 and 6.0×10^5 cells were seeded into 6-well plates (Corning; cat. no. 353046). The next day, media was removed and cells were treated with 2.5 μM LC-2 for 1, 2, 4, 8, 12, or 24 hours. […] For 24-hour time course experiments, cells were treated at the indicated times and concurrently lysed in RIPA buffer supplemented as described previously. For longer time course experiments and time courses in which cells were treated with LC-2 or LC-2 Epimer, cells were concurrently treated with either compound, then lysed by scraping in RIPA buffer at the indicated time points.
Cell lysates were clarified at 21000×g for 15 mins at 4° C. Protein levels were quantified using a 50:1 mixture of bicinchoninic acid solution (Millipore Sigma; cat. no. B9643) and 4% (w/v) copper(II) sulfate solution (Millipore Sigma; cat. no. C2284) incubated at 37° C. for 30 mins. Absorbance values at 560 nm were read on an EnVision 2101 Multilabel Reader (PerkinElmer). Proteins were separated using 26 well Criterion TGX precast 4-15% (cat. no. 5671085) or 8-16% (cat. no. 5671105) gradient midi gels. After separation, proteins were transferred to nitrocellulose or PVDF membranes at 76 V for 2 hours at 4° C. Blots were then blocked in 5% milk in tris-buffered saline with Tween-20 (TBST; 20 mM Tris, 150 mM NaCl, 0.02% Tween-20). After blocking, blots were incubated in primary antibody overnight (12-18 hours) at 4° C. or for 2 hours at room temperature with mild agitation at the manufacturer's indicated dilution in either 5% milk or 5% BSA in TBST. Blots were then washed thrice with TBST for 5 mins at room temperature. After washing, blots were incubated with 1:5,000-1:10,000 of donkey anti-rabbit (GE Life Sciences; NA934) or sheep anti-mouse (GE Life Sciences; NA931) secondary antibody diluted in 5% milk for 1 hour at room temperature with mild agitation. Blots were again washed thrice with TBST for 5 mins. Chemiluminescent signal was generated using Amersham ECL Prime Western Blotting Detection Reagant (GE Life Sciences; cat. no. RPN2232) or SuperSignal West Femto Maximum Sensitivity Substrate (ThermoFisher; cat. no. 34095). Images were obtained using a Bio-Rad ChemiDoc Imager. Fluorescent α-tubulin images were collected with the Bio-Rad ChemiDoc Imager using an Alexa488 filter. The primary antibodies used in this work include: KRAS (LSBio; clone 2C1; cat. no. LS-C175665), p-p42/44 MAPK (phospho T202/Y204) (pErk; Cell Signaling Technologies (CST); cat. no. 4370S or 9106S), p42/44 MAPK (Erk1/2; CST; cat. no. 4695S), alpha-tubulin (CST; 2144S), and alpha-tubulin w/AlexaFluor488 (Millipore; cat. no. 16-232).
Band intensities were quantified using BioRad's Image Lab Software.

Description for pErk: The ability of LC-2 to modulate Erk signaling was investigated in NCI-H2030 and NCI-H23 cells during a 24 hour dose response.
Signaling kinetics were monitored during a 24 hour time course in MIA PaCa2, NCI-H23, and SW1573 cells treated with 2.5 μM LC-2.
NCI-H2030 (CRL-5914), MIA PaCa-2 (CRL-1420), NCI-H23 (CRL-5800), NCI-H358 (CRL-5807), and HCT-116 (CCL-247) cells were obtained from ATCC, expanded immediately, and frozen down. Vials were thawed and used within 20 passages. SW1573 cells were a gift from Arvinas and were handled in the same manner. NCI-H2030, NCI-H23, and NCI-H358 were cultured in RPMI (ATCC30-2001) supplemented with 10% FBS (Biological Industries; cat. no. S1480) and 1% Penicillin-Streptomycin (ThermoFisher; cat. no. 15140122). HCT-116 cells were maintained in high glucose DMEM (ThermoFisher; cat. no. 11965084) supplemented as above. MIA PaCa-2 cells were cultured in high glucose DMEM supplemented with 10% FBS, 2.5% horse serum (ThermoFisher; cat. no. 26050-088; lot 2109875), and 1% Penicillin-Streptomycin. SW1573 cells were maintained in DMEM/F12 Nutrient Mix with GlutaMAX supplement (ThermoFisher; cat. no. 10565018) with 10% FBS and 1% Penicillin-Streptomycin added. DPBS (ThermoFisher; cat. no. 14190250) was used to wash cells and 0.25% Trypsin-EDTA (ThermoFisher; cat. no. 252000-056) was used to detach cells for passaging. […] The VHL ligand was generously provided by Arvinas.
Cell lysates were clarified at 21000×g for 15 mins at 4° C. Protein levels were quantified using a 50:1 mixture of bicinchoninic acid solution (Millipore Sigma; cat. no. B9643) and 4% (w/v) copper(II) sulfate solution (Millipore Sigma; cat. no. C2284) incubated at 37° C. for 30 mins. Absorbance values at 560 nm were read on an EnVision 2101 Multilabel Reader (PerkinElmer). […]

For `C=C(F)C(=O)N1CCN(c2nc(OC[C@@H]3CCCN3CCCOCCC(=O)N[C@H](C(=O)N3C[C@H](O)C[C@H]3C(=O)NCc3ccc(-c4scnc4C)cc3)C(C)(C)C)nc3c2CCN(c2cccc4cccc(Cl)c24)C3)C[C@@H]1CC#N` [LC-2, (2S,4R)-1-((S)-2-(3-(3-((S)-2-(((7-(8-chloronaphthalen-1-yl)-4-((S)-3-(cyanomethyl)-4-(2-fluoroacryloyl)piperazin-1-yl)-5,6,7,8-tetrahydropyrido[3,4-d]pyrimidin-2-yl)oxy)methyl)pyrrolidin-1-yl)propoxy)propanamido)-3,3-dimethylbutanoyl)-4-hydroxy-N-(4-(4-methylthiazol-5-yl)benzyl)pyrrolidine-2-carboxamide], the pErk (pErk; NCI-H23, 2.5 μM LC-2, 6 and 24 hours) was “suppressed”, the pErk signaling (pErk; NCI-H23, 24 hour dose response) was “dose-dependent decrease in pErk” and the “total Erk levels” value (pErk; NCI-H23, 24 hour dose response) was “elevated in a dose-dependent manner”. For the same compound, the DC50 (KRAS^G12C; MIA PaCa2, homozygous KRAS^G12C) was 320 ± 80 nM, the Dmax (KRAS^G12C; MIA PaCa-2) was over 75% and the “duration of KRAS degradation” value (KRAS^G12C; MIA PaCa-2, 2.5 μM) was “sustained up to 72 hours”. For the same compound, the “time to maximal KRAS degradation” value (KRAS^G12C; MIA PaCa-2, 2.5 μM, 6, 24, 48, 72 hours) was at most 24 h, the “KRAS, two-way ANOVA significance vs DMSO” value (KRAS^G12C; MIA PaCa-2, 2.5 μM, 6 hours) was “** (** p < 0.01)” and the “KRAS, two-way ANOVA significance vs DMSO” value (KRAS^G12C; MIA PaCa-2, 2.5 μM, 24 hours) was “** (** p < 0.01)”.
